From US20090326014A1, “Use of 5-ht7 receptor agonists for the treatment of pain” (Laboratorios Del Dr. Esteve, S.A., priority 2006, published 2009)
Several values for one entry are separate records, joined by “and”; a condition that tells them apart may be missing. Equal entries are not always repeated. Entries after “also recorded” stand apart in the source; their conditions may differ. Where two headings read alike, the source gives them in different places.

Experiments:
[1] = target: T1, h5-HT1A (Homo sapiens, UniProt P08908); experiment: Radioligand binding assay, h5-HT1A
T1 sequence (P08908 1-422): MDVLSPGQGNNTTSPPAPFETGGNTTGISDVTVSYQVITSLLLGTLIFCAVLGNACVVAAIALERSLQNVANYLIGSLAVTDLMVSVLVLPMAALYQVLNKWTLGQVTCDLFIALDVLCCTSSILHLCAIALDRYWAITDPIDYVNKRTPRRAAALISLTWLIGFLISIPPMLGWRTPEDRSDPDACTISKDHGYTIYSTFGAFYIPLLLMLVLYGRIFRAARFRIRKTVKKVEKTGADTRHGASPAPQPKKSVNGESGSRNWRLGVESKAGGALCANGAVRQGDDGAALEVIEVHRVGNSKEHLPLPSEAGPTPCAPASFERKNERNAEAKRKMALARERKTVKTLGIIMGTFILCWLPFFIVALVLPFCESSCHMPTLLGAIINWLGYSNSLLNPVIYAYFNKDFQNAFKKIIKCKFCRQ

[2] = target: h5-HT2B (Homo sapiens, UniProt P41595); experiment: Radioligand binding assay, h5-HT2B
[3] = target: h5-HT2C (Homo sapiens, UniProt P28335); experiment: Radioligand binding assay, h5-HT2C
[4] = target: T2, h5-HT3 (Homo sapiens, UniProt P46098); experiment: Radioligand binding assay, h5-HT3; conditions: read-out: Affinity [ki (nM)]
T2 sequence (P46098 24-478): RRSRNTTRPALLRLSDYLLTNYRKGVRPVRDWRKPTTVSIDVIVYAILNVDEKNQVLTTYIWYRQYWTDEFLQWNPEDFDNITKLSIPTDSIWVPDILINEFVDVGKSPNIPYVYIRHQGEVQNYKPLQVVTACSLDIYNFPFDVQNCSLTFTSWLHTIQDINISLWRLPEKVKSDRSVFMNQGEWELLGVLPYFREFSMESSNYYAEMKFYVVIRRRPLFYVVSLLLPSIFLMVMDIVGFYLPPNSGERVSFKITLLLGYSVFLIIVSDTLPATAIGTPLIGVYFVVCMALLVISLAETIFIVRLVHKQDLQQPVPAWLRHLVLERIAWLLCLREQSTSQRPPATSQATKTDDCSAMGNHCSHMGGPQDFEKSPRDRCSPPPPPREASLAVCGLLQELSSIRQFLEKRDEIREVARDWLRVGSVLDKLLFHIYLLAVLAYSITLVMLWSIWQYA
Method: (§1) Binding affinities were determined in radioligand binding assays according to their standard assays protocols. In case 1, the assays included in the LeadProfilingScreen package plus 5-HT1 non-selective, 5-HT2 non-selective, 5-HT2B, 5-HT2C, 5-HT4, 5-HT5A, 5-HT6 and 5-HT7 were performed. In case 2, assays included in the High-throughput profile plus 5-HT1D, 5-HT2B, 5-HT4e were performed. For AS-19 further assays were carried out to complete its selectivity profile for serotonin receptors, including 5-HT1B, 5-HT1D, 5-HT2A and 5-HT4a.

[5] = target: gp5-HT4 (Cavia porcellus, UniProt O70528); experiment: Radioligand binding assay, gp5-HT4; design: species or system guinea pig; conditions: read-out: Affinity [ki (nM)]
Method: as §1

[6] = target: h5-HT5A (Homo sapiens, UniProt P47898); experiment: Radioligand binding assay, h5-HT5A; conditions: read-out: Affinity [ki (nM)]
[7] = target: h5-HT6 (Homo sapiens, UniProt P50406); experiment: Radioligand binding assay, h5-HT6
[8] = target: h5-HT7 (Homo sapiens, UniProt P34969); experiment: biochemical; conditions: Affinity [ki (nM)]
[9] = target: T3, 5-HT7 receptors (Homo sapiens, UniProt P34969); experiment: cAMP measurement (HTRF) in HEK-293F cells stably expressing human 5-HT7 receptors; format: cell-based; design: expressed in transfected cells; host or cells: HEK-293F; conditions: for EC50: HEK-293F cells, human 5-HT7, mean ± SEM
Method: The HTRF CAMP kit from CisBio was used according to the manufacturer's directions. The experimental procedure was performed as stated below. After overnight serum-free incubation, suspended cells (20,000 cells per well) were added to 96-well culture plates in incubation buffer composed of Ham's F12 (Gibco) plus 1 mM 3-isobutyl-1-methyl-xanthine (IBMX; Sigma) and 20 μM pargyline (Sigma).
For agonist and antagonist experiments, 2 μl of either compound or vehicle was added to each well on 40 μl of cell suspension at different concentrations, preincubating plates for 10 min at room temperature after compound addition.

[10] = system: capsaicin-induced mechanical allodynia; experiment: Capsaicin test, antiallodynic protocol (1 μg capsaicin, 1 g von Frey filament); conditions: for dose at which the antiallodynic effect reached the maximum: s.c.
Method: Animals were housed in groups of five, provided with food and water ad libitum and kept in controlled laboratory conditions with the temperature maintained at 21±1° C. and light in 12 h cycles (on at 07:00 h and off at 19:00 h). Experiments were carried out in a soundproof and air-regulated experimental room. The number of mice per group in each individual experiment was 16.
Capsaicin (8-methyl-N-vanillyl 6-nonamide) was dissolved in 1% DMSO (vehicle). […] Doses were calculated based on the molecular weight of the free base. All the compounds and vehicles (1% DMSO or physiological saline) were administered in a volume of 5 ml/kg through the subcutaneous (s.c.) route. When two compounds were co-administered, they were injected s.c. in opposite flanks of the mice.
Subplantar capsaicin injection initially evokes a nocifensive behavior that is characterized by lifting and guarding the injected paw and typically lasts up to 5 min following injection. […] In this study, sensitization by subplantar capsaicin injection was used to assess the effect of several 5-HT7 ligands on mechanical allodynia.
Drug treatments with 5-HT7 ligands were done 30 min before capsaicin injection and withdrawal latencies to a mechanical stimulus were determined 15 min after capsaicin injection (FIG. 1).
Mechanical allodynia was quantified by measuring the hind paw withdrawal response latency to von Frey filament stimulation. Mice were placed into compartment enclosures in a test chamber with a framed metal mesh floor and allowed to acclimate to their environment for 120 min before testing. […] The mechanical stimulus was applied to the plantar surface of the right, capsaicin-injected hind paw from below the mesh floor by using an automated testing device (dynamic plantar aesthesiometer; Ugo Basile, Italy) that lifts a straight filament (0.5 mm diameter). The filament exerted a fixed upward pressure (1 g or 0.25 g) on the plantar surface. When the animal withdrew its hind paw, the mechanical stimulus automatically stopped and the latency time was recorded. Latency was defined as the time from the onset of exposure to the filament to the cessation of the pressure when the sensor detected the withdrawal of the paw. A cut-off latency of 60 sec was imposed. Paw withdrawal latencies were measured in triplicate for each animal.
This approach enabled us to evaluate the possible antiallodynic effect of 5-HT7 ligands.
Data are presented as mean paw withdrawal latency responses in sec±S.E.M. Capsaicin-injected hind paw withdrawal responses to mechanical stimulation of treated mice were compared with those of untreated (vehicle-treated) mice. Statistical analysis to test intergroup comparisons was made using an initial one-way analysis of variance followed by the Newman-Keuls multiple comparison test. The level of significance was set at p<0.05.

[11] = target: h5-HT2A (Homo sapiens, UniProt P28223); experiment: Radioligand binding assay, h5-HT2A; conditions: read-out: Affinity [ki (nM)]
[12] = system: mechanical allodynia induced by partial sciatic nerve ligation; experiment: Partial sciatic nerve ligation, von Frey test (mechanical allodynia); format: in vivo, mice; conditions: for effect on mechanical allodynia (von Frey pressure threshold), nerve-injured mice: days 11-13 post-injury
Text: Mechanical allodynia was quantified by measuring the tactile threshold for hind paw withdrawal following von Frey filament stimulation. […] The filament exerted an increasing upward pressure on the plantar surface. The pressure increased linearly with time (0.1 g/s; from 0 to 5 g in 50 s) until the mouse withdrew its paw. […] A cut-off threshold of 5 g (50 s) was imposed.
The filament of 0.4 g was first used. […] This up-down procedure was stopped four measures after the first change in animal responding and the threshold of response was calculated. Clear paw withdrawal, shaking was considered as a nociceptive-like response.

[13] = system: thermal hyperalgesia induced by partial sciatic nerve ligation; experiment: Partial sciatic nerve ligation, plantar test (thermal hyperalgesia)
Method: Animals were housed in groups of five, provided with food and water ad libitum and kept in controlled laboratory conditions with the temperature maintained at 21±1° C. and light in 12 h cycles (on at 07:00 h and off at 19:00 h). Experiments were carried out in a soundproof and air-regulated experimental room.
The rest of compounds were prepared as aqueous solutions. Doses were calculated based on the molecular weight of the free base. All the compounds and vehicles (1% DMSO or physiological saline) were administered in a volume of 5 ml/kg through the subcutaneous (s.c.) route. When two compounds were co-administered, they were injected s.c. in opposite flanks of the mice.
This model consists of partial injury to the sciatic nerve at mid-thigh level. All surgical procedures for nerve injury were performed under isoflurane (IsoFlo®, Abbott-Laboratorios Dr. Esteve, S. A., Barcelona, Spain) anesthesia (induction: 3%; surgery: 2%). Briefly, mice were anaesthetized and the common sciatic nerve was exposed at the level of the mid-thigh of the right hind paw. Partial nerve injury was produced at about 1 cm proximal to the nerve trifurcation by tying a tight ligature around approximately 33 to 50% the diameter of the sciatic nerve using 9-0 non-absorbable virgin silk suture (Alcon surgical, Texas, USA). Ligature enclosed the outer ⅓-½ sciatic nerve whereas the rest of the nerve (inner ⅔-½) was leaved “uninjured”. The muscle was then stitched with 6-0 silk suture and the skin incision was closed with wound clips. Control, sham-operated mice underwent the same surgical procedure and the sciatic nerve was exposed, but not ligated. After surgery, animals were allowed to recover for 5 days prior to initiation of nociceptive behavioral tests (see experimental protocol below).
The effectiveness of acute treatments with 5-HT7 ligands compared to vehicle on the expression of neuropathic pain was investigated based on the following experimental protocol. […] After the habituation period, pre-injury baseline responses in each test were established during 2 consecutive days. One day after baseline measurements, nerve injury or sham operation was induced as previously described. Mice were then tested in either the von Frey or the plantar test on day 5 after the surgical procedure to monitor post-injury responses. Post-injury baseline responses of mice treated with vehicle were obtained on day 10 (basal pre-treatment). On days 11-13 mice received treatment with three different doses of 5-HT7 ligands following a Latin square design. Finally, on day 14 after surgery, baseline responses in vehicle-treated mice (basal post-treatment) were evaluated as an internal control to ensure that mechanical allodynia and thermal hyperalgesia were not influenced by previous treatments in the Latin square design.

[14] = system: sciatic nerve-ligatured rats; experiment: Chronic constriction injury of the sciatic nerve (CCI-SN), Randall-Sellito test
Method: (§2) All compounds were prepared as aqueous solutions. […] When two compounds were co-administered, one was injected s.c. and the other i.p.
Briefly, the right common sciatic nerve was exposed at mid-tight level by blunt dissection through the biceps femoris muscle. Proximal to the trifurcation, ≈10 mm of nerve was freed from adhering tissue and four loose ligatures (5.0 chromic catgut) were tied around the sciatic nerve (≈1 mm apart). […] In sham-operated control rats, an identical dissection was performed on the right side allowing the sciatic nerve to be freed from surrounding tissue, but not ligatured. Finally, muscle and skin were closed in layers with silk thread.
Mechanical nociceptive thresholds, expressed as grams (g), were measured using the Randall-Sellito test (Ugo Basile analgesimeter; Bioseb, Chaville, France). An increasing pressure was applied to the nerve-injured hindpaw of unrestrained rats until paw withdrawal (PW) and then a squeak (i.e. the vocalization threshold when the paw was held under pressure) were obtained. As PW is a spinally coordinated reflex whereas vocalization is a supra-spinal integrated response (Kayser and Christensen, 2000), this test allowed assessment of the respective contribution of spinal versus supra-spinal mechanisms.

[15] = system: infraorbital nerve-ligatured rats; experiment: Chronic constriction injury of the infraorbital nerve (CCI-ION), von Frey filaments
Method: Food and water were available ad libitum. Rats were allowed to habituate to the housing facilities for at least 1 week before surgery.
as §2
After pentobarbital-induced anaesthesia, the head of the rat was fixed in a stereotaxic frame, and a mid-line scalp incision was made, exposing skull and nasal bone. The infraorbital part of the right infraorbital nerve was then exposed. The edge of the orbit, formed by the maxillary, frontal, lacrimal and zygomatic bones, was dissected free, and orbital contents were gently deflected to give access to the infraorbital nerve. The latter was then dissected free at its most rostral extent in the orbital cavity, just caudal to the infraorbital foreamen. […] Care was taken to avoid any interruption of the epineurial circulation. In sham-operated rats, the right infraorbital nerve was exposed, but it was not ligatured.
In these rats with unilateral ligatures on the infraorbital nerve, sensitivity to mechanical stimulation in the ipsilateral vibrissal territory was assessed by determination of pressure threshold, delivered through von Frey filaments (Semmes-Weinstein monofilaments, Stoelting, Wood Dale, Ill., USA), necessary to trigger defensive behavioural response (brisk withdrawal of the head; attack; escape reaction).

[16] = target: T4, h5-HT1F (Homo sapiens, UniProt P30939); experiment: Radioligand binding assay, h5-HT1F; conditions: read-out: Affinity [ki (nM)]
T4 sequence (P30939 1-366): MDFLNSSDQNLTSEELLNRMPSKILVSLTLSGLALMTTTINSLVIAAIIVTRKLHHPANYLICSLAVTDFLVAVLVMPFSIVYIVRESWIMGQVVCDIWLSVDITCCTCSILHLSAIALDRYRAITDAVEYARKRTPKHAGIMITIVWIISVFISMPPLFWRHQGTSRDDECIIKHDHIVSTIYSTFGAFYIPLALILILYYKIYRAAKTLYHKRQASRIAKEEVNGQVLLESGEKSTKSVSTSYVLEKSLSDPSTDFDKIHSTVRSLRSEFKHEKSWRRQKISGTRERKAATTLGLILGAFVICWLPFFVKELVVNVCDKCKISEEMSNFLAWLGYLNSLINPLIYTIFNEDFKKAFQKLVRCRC

[17] = system: capsaicin-induced mechanical allodynia; experiment: Capsaicin test, proallodynic protocol (4 ng capsaicin, 0.25 g von Frey filament); format: in vivo, mice; conditions: 10 mg/Kg s.c., 0.25 g pressure
Method: Alternatively, in some experiments, only 4 ng (instead of 1 μg) of capsaicin were injected into the paw and the pressure exerted by the filament was reduced to 0.25 g (instead of 1 g). […] This approach was used to test the possibility that treatments could exert a proallodynic effect. The FIG. 1 summarizes the two different experimental approaches carried out in this study.

[18] = target: T3, 5-HT7 receptors; conditions: Mahe et al., 2004; Romero et al., 2006; cited from earlier work
[19] = system: 5-HT1A; conditions: Foster et al., 1995; cited from earlier work

T3 sequence (P34969 whole entry): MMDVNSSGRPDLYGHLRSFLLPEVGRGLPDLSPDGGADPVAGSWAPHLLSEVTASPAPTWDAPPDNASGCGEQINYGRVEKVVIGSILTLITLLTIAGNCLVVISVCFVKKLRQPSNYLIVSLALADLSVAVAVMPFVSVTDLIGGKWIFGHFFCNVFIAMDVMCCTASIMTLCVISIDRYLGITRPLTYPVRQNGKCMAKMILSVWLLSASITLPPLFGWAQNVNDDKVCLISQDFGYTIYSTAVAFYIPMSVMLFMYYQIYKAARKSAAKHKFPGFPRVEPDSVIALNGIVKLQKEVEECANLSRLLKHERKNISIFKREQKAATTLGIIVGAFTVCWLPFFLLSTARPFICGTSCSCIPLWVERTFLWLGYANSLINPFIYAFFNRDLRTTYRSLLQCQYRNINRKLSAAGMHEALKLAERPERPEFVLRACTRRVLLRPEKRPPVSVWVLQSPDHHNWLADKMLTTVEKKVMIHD
h5-HT7, sequence (P34969 whole entry): as above
h5-HT2C, sequence (P28335 33-458): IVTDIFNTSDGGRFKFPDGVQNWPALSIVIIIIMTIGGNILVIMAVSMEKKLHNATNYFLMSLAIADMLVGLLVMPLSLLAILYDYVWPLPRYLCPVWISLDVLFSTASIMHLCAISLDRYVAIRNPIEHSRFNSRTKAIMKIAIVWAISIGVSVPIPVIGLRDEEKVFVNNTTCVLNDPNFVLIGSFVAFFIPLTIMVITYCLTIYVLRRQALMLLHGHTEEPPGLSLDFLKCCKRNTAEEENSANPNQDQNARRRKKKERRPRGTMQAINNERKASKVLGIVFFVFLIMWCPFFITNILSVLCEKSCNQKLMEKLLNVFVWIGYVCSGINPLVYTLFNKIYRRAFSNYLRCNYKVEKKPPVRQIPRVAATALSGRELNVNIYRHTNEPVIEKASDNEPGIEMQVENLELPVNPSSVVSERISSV
h5-HT2B, sequence (P41595 whole entry): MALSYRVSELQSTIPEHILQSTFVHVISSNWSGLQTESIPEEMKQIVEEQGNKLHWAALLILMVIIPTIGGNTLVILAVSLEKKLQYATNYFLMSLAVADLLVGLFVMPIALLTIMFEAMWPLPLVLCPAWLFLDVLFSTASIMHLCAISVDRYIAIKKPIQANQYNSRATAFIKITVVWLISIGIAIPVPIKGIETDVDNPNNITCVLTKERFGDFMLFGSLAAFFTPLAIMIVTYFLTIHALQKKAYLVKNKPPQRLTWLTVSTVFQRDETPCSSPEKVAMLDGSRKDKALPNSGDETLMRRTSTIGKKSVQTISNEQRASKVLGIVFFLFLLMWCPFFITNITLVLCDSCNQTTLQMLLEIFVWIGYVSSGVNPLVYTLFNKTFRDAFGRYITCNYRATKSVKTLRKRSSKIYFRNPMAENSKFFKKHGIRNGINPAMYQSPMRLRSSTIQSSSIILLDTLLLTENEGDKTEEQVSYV
h5-HT6, sequence (P50406 whole entry): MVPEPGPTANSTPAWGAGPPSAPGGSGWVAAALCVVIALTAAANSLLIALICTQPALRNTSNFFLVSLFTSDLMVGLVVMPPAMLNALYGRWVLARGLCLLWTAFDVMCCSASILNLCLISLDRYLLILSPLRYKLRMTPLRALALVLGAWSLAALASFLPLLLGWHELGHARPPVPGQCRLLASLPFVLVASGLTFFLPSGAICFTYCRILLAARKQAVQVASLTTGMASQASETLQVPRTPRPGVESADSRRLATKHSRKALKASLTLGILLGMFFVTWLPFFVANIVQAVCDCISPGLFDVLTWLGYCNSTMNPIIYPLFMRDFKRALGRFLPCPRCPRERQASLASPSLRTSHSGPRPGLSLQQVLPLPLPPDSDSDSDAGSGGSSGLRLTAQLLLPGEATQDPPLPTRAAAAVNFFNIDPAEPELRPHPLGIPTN
h5-HT2A, sequence (P28223 whole entry): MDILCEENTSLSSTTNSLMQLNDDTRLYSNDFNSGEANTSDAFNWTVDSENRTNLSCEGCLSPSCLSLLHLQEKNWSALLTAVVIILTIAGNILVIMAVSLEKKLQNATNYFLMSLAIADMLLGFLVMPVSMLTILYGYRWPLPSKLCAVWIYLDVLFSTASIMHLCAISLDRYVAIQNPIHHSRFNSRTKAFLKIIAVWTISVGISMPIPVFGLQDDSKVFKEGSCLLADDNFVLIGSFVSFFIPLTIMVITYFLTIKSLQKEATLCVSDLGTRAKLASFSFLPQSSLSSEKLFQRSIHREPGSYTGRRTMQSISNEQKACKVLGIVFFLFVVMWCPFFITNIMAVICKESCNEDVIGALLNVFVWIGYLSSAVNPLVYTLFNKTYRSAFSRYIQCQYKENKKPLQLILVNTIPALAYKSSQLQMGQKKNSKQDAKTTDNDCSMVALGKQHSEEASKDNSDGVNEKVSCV
h5-HT5A, sequence (P47898 whole entry): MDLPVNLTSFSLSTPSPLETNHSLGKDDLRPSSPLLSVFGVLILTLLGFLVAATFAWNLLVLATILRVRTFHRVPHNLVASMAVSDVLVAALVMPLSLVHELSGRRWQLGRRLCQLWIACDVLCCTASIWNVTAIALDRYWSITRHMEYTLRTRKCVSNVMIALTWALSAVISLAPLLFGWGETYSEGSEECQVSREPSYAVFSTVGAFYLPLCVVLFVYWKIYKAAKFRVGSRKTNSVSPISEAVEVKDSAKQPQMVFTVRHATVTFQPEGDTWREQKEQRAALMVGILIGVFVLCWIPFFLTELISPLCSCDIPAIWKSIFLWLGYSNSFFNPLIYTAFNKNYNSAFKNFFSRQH
gp5-HT4, sequence (O70528 whole entry): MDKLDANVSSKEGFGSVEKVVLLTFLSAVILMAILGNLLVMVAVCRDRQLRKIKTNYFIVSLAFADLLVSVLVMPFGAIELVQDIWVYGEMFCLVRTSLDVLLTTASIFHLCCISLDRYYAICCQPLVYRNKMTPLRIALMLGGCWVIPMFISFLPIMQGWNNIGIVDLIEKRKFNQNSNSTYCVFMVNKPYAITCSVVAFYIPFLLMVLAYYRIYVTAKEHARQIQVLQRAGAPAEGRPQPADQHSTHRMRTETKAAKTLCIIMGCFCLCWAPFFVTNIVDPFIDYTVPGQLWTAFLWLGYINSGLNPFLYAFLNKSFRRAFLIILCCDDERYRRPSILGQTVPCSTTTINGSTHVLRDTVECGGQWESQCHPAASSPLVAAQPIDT

## Cc1nn(C)c(C)c1-c1cccc2c1CC[C@H](N(C)C)C2 [AS-19]
[1]
  Ki: 89.7 nM
[2]
  Ki: > 1000 nM
[3]
  Ki: > 1000 nM
[4]
  Ki: > 1000 nM
[5]
  Ki: > 1000 nM
[6]
  Ki: 98.5 nM
[7]
  Ki: > 1000 nM
[8]
  Ki: 0.605 nM and 0.6 nM
[9]; EC50 (nM), cAMP concentration-response curves
  EC50: 8.87 ± 0.57 nM
[9]; HEK293F
  Emax: 77 ± 2.3%
[9]; pEC50, cAMP concentration-response curves
  EC50: 8.71 nM
[10]; 1 g filament
  dose at which the antiallodynic effect reached the maximum: 10 mg/kg

## Cc1ccc(CNCC2(F)CCN(C(=O)c3ccc(F)c(Cl)c3)CC2)nc1 [F-13640, (3-Chloro-4-fluoro-phenyl)-[4-fluoro-4-{[(5-methyl-pyridin-2-ylmethyl)-amino]-methyl}piperidin-1-yl]methanone]
[10]; 1 mg/kg s.c., 1 g filament
  effect on capsaicin-induced mechanical allodynia: inhibited

## CN(C)CCSc1cccc(-c2ccccc2)n1 [MSD-5a, 2-(6-phenylpyridin-2-ylthio)-N,N-dimethylethanamine]
[1]; h5-HT1A, read-out: Affinity [ki (nM)]
  Ki: 16 nM
[11]
  Ki: 320 nM
[12]; 0.3 mg/kg s.c.
  effect on mechanical allodynia (von Frey pressure threshold), nerve-injured mice: ineffective
[12]; 1 and 3 mg/kg s.c.
  effect on mechanical allodynia (von Frey pressure threshold), nerve-injured mice: significantly inhibited mechanical allodynia; also recorded: restored thresholds of the nociceptive withdrawal response of nerve-injured paws to baseline pre-injury values
[12]; post-treatment thresholds, day 14 post-injury
  persistence of the antiallodynic effect after treatment: disappeared the following day after last administration of MSD-5a
[12]; sham-operated, s.c., over the doses tested
  effect on nociceptive threshold in sham-operated mice: did not produce any effects
[13]; 0.3 mg/kg s.c.
  effect on thermal hyperalgesia (paw withdrawal latency), nerve-injured mice: did not exert analgesic (antihyperalgesic) effect
[13]; 1 and 3 mg/kg s.c., days 11-13 post-injury
  effect on thermal hyperalgesia (paw withdrawal latency), nerve-injured mice: increased the withdrawal latency of nerve-injured paws to levels indistinguishable from control baseline pre-injury values
[13]; sham-operated, s.c.
  effect on thermal withdrawal latency in sham-operated mice: had no effects
[10]; 3, 10 and 30 mg/kg s.c., 1 g filament
  effect on capsaicin-induced mechanical allodynia (paw withdrawal latency vs vehicle): increased the latencies of nociceptive paw withdrawal responses
[10]; mice, 1 g filament, s.c. 30 min before capsaicin, over the doses tested
  effect on capsaicin-induced mechanical allodynia (paw withdrawal latency): restored the nociceptive response of capsaicin-sensitized mice to baseline values
[10]; 1 g filament
  dose at which the antiallodynic effect reached the maximum: 10 mg/kg
[14]; s.c., paw withdrawal and vocalization thresholds
  effect on mechanical nociceptive thresholds in sciatic nerve-ligatured rats: clear-cut antihyperalgesic effects
[15]; s.c., von Frey filaments, ipsilateral vibrissal territory
  effect on response threshold (mechanical allodynia) in infraorbital nerve-ligatured rats: clearly increased the threshold

## CC1CCN(CC[C@H]2CCCN2S(=O)(=O)c2cccc(O)c2)CC1 [SB-269970, (R)-3-(2-(2-(4-Methylpiperidin-1-yl)ethyl)pyrrolidine-1-sulfonyl)phenol]
[16]
  Ki: > 1000 nM
[17]
  proallodynic effect (paw withdrawal latency): allodynia was evidenced
[18]
  functionality at 5-HT7 receptor as described: inverse agonist
[10]; 10 mg/kg s.c., alone, 1 g filament
  effect on capsaicin-induced mechanical allodynia: did not modify paw withdrawal latencies
[10]; SB-269970 10 mg/kg + AS-19 5 mg/kg s.c.
  effect on the antiallodynic effect of AS-19 when co-administered: blocked the antiallodynic effect of the agonist
[14]; antagonist i.p., AS-19 s.c., sciatic nerve-ligated rats
  effect on AS 19-induced anti-hyperalgesia/anti-allodynia: Blockade
[15]; antagonist i.p., 5a-MSD s.c., infraorbital nerve-ligated rats
  effect on 5a-MSD-induced anti-hyperalgesia/anti-allodynia: Blockade
[15]; antagonist i.p., AS-19 s.c., infraorbital nerve-ligated rats
  effect on AS 19-induced anti-hyperalgesia/anti-allodynia: Blockade

## COc1ccccc1N1CCN(CCN(C(=O)C2CCCCC2)c2ccccn2)CC1 [WAY-100635, N-(2-(4-(2-methoxyphenyl)-1-piperazinyl)ethyl)-N-(2-pyridinyl)cyclohexane carboxamide]
[19]
  ID50 for block of 5-HT1A-mediated effects induced by 8-OH-DPAT: 0.01 mg/kg
[10]; 0.1 and 0.3 mg/kg s.c., 1 g filament
  effect on capsaicin-induced mechanical allodynia: unaffected
[10]; 0.5 and 1 mg/kg s.c., 1 g filament
  effect on capsaicin-induced mechanical allodynia: significant increase in paw withdrawal latency
[10]; AS-19 at 5 and 10 mg/kg, WAY-100635 0.3 mg/kg or SB-258719 5 mg/kg s.c.
  effect on the antiallodynic effect of AS-19 when co-administered: unaffected
[10]; WAY-100635 0.3 mg/kg + F-13640 1 mg/kg s.c.
  effect on the antiallodynic effect of F-13640 when co-administered: blocked this antiallodynic effect
